Experimental data as given in ChEMBL document CHEMBL1201862, “PubChem BioAssay data set” (2004).
Activity calls are given as the source filed them.

Tests used:
[1] = target: T1, Sentrin-specific protease 6 (Homo sapiens, UniProt Q9GZR1); test: SAR Analysis of small molecule inhibitors of Sentrin-specific protease 6 (SENP6) using a Luminescent assay. [Related pubchem assays (depositor defined):AID2582, AID2599]; type: functional
T1 sequence (Q9GZR1 whole entry): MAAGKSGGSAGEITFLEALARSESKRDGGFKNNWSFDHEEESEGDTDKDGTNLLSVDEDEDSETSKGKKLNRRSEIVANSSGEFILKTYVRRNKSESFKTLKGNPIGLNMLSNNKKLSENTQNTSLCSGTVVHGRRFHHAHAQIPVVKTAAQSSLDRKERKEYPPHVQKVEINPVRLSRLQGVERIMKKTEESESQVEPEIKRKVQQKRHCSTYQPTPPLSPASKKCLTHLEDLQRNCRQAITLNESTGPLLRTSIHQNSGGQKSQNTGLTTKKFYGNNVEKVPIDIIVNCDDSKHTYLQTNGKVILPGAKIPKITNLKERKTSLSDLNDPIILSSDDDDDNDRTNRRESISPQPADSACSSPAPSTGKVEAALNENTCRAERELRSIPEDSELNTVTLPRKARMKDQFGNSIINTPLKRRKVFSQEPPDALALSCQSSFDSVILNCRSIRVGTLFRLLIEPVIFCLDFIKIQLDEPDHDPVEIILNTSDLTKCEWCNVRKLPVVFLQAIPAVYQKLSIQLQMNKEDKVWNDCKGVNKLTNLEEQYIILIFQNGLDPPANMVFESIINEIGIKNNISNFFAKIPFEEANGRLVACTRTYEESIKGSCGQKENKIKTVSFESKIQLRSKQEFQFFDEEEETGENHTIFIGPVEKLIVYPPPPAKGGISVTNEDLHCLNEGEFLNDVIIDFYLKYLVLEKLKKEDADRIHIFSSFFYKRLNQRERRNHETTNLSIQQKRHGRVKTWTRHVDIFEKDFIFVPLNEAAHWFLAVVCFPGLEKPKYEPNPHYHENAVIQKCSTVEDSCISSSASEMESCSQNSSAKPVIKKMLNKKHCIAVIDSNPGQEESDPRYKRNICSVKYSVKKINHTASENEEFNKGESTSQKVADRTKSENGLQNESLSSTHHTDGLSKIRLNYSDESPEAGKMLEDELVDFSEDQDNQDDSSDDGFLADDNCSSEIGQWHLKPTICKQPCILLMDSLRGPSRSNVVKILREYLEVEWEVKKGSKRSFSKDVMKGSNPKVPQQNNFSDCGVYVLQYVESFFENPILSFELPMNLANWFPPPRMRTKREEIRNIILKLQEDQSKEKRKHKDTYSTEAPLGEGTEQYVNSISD

[2] = target: Serine/threonine-protein phosphatase (Homo sapiens, UniProt Q9BPW0); test: inhibition of protein phosphatase 5 activity – biochemical, fluorescence, dose response (AID 2395)
Chain of Serine/threonine-protein phosphatase (Q9BPW0 whole entry): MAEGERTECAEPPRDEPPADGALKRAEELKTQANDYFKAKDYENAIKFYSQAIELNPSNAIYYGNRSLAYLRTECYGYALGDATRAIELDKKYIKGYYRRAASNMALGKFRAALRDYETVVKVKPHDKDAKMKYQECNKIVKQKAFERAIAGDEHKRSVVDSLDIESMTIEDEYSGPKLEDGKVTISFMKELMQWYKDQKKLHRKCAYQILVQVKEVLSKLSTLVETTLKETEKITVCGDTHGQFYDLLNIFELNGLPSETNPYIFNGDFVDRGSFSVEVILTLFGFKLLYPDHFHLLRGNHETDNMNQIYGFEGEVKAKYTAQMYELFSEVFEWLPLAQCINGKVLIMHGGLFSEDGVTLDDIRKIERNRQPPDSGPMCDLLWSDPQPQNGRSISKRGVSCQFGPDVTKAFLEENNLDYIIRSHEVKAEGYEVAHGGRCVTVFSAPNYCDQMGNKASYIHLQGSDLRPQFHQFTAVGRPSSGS

[3] = target: T2, Sentrin-specific protease 7 (Homo sapiens, UniProt Q9BQF6); test: inhibition of human SENP7 cleavage activity – biochemical, luminescence, SAR follow-up (AID 504497); type: functional
T2 sequence (Q9BQF6 whole entry): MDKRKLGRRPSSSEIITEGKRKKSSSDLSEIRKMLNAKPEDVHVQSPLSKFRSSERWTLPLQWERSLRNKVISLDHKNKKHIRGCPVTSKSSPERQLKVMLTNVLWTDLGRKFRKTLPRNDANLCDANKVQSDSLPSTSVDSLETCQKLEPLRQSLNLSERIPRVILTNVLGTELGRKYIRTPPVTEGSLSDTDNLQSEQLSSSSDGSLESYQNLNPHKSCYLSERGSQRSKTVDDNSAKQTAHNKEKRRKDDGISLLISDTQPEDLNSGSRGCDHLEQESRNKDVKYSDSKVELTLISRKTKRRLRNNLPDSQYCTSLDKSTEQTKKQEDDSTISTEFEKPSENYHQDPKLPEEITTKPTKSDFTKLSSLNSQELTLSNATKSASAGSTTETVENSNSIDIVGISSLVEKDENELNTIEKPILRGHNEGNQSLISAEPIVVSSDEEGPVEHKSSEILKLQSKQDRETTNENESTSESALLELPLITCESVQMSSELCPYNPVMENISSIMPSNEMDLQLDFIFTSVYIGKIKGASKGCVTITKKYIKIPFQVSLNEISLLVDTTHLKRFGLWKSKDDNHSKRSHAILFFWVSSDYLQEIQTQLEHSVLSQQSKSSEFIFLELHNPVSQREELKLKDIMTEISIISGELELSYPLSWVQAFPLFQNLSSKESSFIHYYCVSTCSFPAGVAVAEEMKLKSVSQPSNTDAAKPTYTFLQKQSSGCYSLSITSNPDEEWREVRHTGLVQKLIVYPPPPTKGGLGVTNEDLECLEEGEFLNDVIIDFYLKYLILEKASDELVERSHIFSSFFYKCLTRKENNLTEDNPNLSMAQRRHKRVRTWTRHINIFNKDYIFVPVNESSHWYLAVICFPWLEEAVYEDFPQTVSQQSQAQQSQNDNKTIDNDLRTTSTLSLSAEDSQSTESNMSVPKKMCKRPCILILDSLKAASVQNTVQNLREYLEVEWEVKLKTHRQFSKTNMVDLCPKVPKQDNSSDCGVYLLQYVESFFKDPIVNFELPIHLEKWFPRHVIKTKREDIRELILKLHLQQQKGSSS

[4] = viability loss in HeLa cells – cytotoxicity control for MgcRacGAP inhibitor project, dose response (AID 624300); type: functional
[5] = target: Serine/threonine-protein phosphatase PP1-alpha catalytic subunit (Homo sapiens, UniProt P62136); test: inhibition of protein phosphatase 1 activity – biochemical, fluorescence, dose response (AID 2394)
Chain of Serine/threonine-protein phosphatase PP1-alpha catalytic subunit (P62136 whole entry): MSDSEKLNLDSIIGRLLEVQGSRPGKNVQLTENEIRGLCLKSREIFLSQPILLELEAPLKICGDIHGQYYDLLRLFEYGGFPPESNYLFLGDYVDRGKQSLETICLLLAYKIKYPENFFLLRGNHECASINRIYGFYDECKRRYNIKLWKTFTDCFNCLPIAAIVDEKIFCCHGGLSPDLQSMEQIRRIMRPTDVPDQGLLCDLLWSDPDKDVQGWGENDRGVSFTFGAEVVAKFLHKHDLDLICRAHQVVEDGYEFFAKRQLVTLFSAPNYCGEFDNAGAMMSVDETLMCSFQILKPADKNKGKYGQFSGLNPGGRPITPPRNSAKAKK

[6] = blockade of melanocortin 4 receptor signaling – cell-based, plate reader, cherry pick, counter-screen for LGR2 antagonist project, dose response (AID 743444); type: functional;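 also: transfected HEK 293 cells stimulated with alpha-MSH peptide; potency of inhibitors of the alpha-MSH evoked signal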
[7] = target: T3, Microphthalmia-associated transcription factor (Homo sapiens, UniProt O75030); test: reducers of TRPM1 reporter luminescence, concentration series – cell-based, SK-MEL-5, cherry-picked, set 3, MITF inhibitor project, dose response (AID 493073); type: functional;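 also: SK-MEL-5 melanoma cells with luciferase driven by the MITF target TRPM1 promoter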
T3 sequence (O75030 whole entry): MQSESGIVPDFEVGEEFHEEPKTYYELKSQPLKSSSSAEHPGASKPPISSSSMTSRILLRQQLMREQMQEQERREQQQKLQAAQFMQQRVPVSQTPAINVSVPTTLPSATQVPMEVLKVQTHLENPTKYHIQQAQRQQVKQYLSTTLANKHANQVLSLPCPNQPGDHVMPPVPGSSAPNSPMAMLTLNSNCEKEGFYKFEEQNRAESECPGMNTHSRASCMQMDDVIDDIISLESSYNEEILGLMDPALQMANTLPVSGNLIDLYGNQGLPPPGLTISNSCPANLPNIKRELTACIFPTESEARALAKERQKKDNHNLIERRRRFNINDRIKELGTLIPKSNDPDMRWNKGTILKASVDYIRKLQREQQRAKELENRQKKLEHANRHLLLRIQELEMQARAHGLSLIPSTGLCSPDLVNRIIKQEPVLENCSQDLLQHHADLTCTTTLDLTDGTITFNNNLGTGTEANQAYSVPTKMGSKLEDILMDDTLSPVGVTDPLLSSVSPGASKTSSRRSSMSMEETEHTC

cells = type: functional, cell-based
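For EC50 in this document: proteasome chymotrypsin-like activity measured in U2OS cells; potency is for inhibition of proteasome activity.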

For Oc1ccc(/C=N\Nc2cc(N3CCOCC3)nc(N3CCOCC3)n2)c(O)c1, the IC50 [1] was 31.8 µM (active), the IC50 [2] was 5.72 µM (active) and the IC50 [3] was 78 µM (active). For the same compound, the CC50 [4] was 100 µM (active) and the IC50 [5] was > 67 µM (not active).

With COc1cc(NC(=O)Cn2ncc(Cl)c(Cl)c2=O)c(C)cc1[N+](=O)[O-] the AC50 [6] was 29 µM (active).

With Cc1ccc(C)c(S(=O)(=O)N2CCN(Cc3ccc(O)c4ncccc34)CC2)c1 the AC50 [7] was 4.44 µM (active) and the EC50 (cells) was > 350 µM (not active).
